Laboratory results: patent US12391687B2, “Five-and-six-membered heterocyclic compound and use thereof as protein receptor kinase inhibitor” (SHANGHAI ENNOVABIO PHARMACEUTICALS CO., LTD., priority 2018, dated 2025)

Assays:
Assay type in all cases: biochemical
Recombinant human TRKC = Recombinant human TRKC (Homo sapiens (Human), UniProt Q16288); assay: In vitro activity test on TRKC kinase (HTRF kinEASE TK); details: 25.64 μM ATP, 40 min, room temperature
Description: (§1) Recombinant human TRKA, TRKB, TRKC proteins were purchased from Carna Biosciences. HTRF kinEASE TK kit was purchased from Cisbio Bioassays. Synergy Neo 2 of Biotek was used to read the plate.
(§2) The tested compounds were subjected to 3-fold serial dilution to reach a final concentration of 1 μM to 0.05 nM (10 concentrations), duplicates for each concentration; and the DMSO concentration in the detection reaction was 1%.
(§3) 0.037 ng/μL TRKC protein kinase, 1 μM TK Substrate-biotin polypeptide substrate, 25.64 μM ATP, 1× enzymatic buffer, 5 mM MgCl2, and 1 mM DTT. The detection plate was White Proxiplate 384-Plus plate (PerkinElmer), the reaction was incubated at room temperature for 40 min, and the assay volume was 10 μL.
(§4) 10 μL of detection reagent (containing 0.125 μM SA-XL665 and 5 μL 1×TK-Antibody) was added to the plate and incubated overnight at room temperature. Synergy Neo 2 was used to read the plate.
(§5) The 665/620 Ratio was converted according to the following formula into inhibition rate (%)=(1−Ratiotest/Ratiomax)×100%. Ratiomax was the value of positive controls without tested compound, and Ratiotest was the value of each concentration of different compounds. IC50 (nM) data was obtained by 4 parameter curve fitting (see Table 1).

Recombinant human TRKB = Recombinant human TRKB (Homo sapiens (Human), UniProt Q16620); assay: In vitro activity test on TRKB kinase (HTRF kinEASE TK); details: 4.77 μM ATP, 50 min, room temperature
Description: as §1, §2
as §3, with “TRKB” for “TRKC”, “4.77” for “25.64”, “MgCl2, 1 mM MnCl2” for “MgCl2,”, “assay” for “detection”, “50” for “40”
as §4, §5

Recombinant human TRKA = Recombinant human TRKA (Homo sapiens (Human), UniProt P04629); assay: In vitro activity test on TRKA kinase (HTRF kinEASE TK); details: 14.68 μM ATP, 40 min, room temperature
Description: as §1, §2
0.2 ng/μL TRKA protein kinase, 1 μM TK Substrate-biotin polypeptide substrate, 14.68 μM ATP, 1×enzymatic buffer, 5 mM MgCl2, and 1 mM DTT. The assay plate was White Proxiplate384-Plus plate (PerkinElmer), and the reaction was incubated at room temperature for 40 min, and the assay volume was 10 μL.
as §4, §5

[1] = target: recombinant human TRKA (G595R) (Homo sapiens (Human), UniProt P04629, G595R); assay: In vitro activity test on mutant TRKA (G595R) (HTRF kinEASE TK); details: 4.5 μM ATP, 30 min, room temperature; read-out: TRKA (G595R) IC 50
Description: The recombinant human TRKA (G595R), TRKA (G667C) and TRKC (G623R) proteins were purchased from SignalChem. HTRF kinEASE TK kit was purchased from Cisbio Bioassays. Synergy Neo 2 of Biotek was used to read the plate.
The tested compounds were subjected to 4-fold serial dilution to reach a final concentration of 1 μM to 0.004 nM (10 concentrates), duplicates for each concentration; and the final concentration of DMSO in the reaction was 1%.
0.12 ng/μL TRKA (G595R) kinase, 1 μM TK Substrate-biotin polypeptide substrate, 4.5 μM ATP, 1× enzymatic buffer, 5 mM MgCl2, and 1 mM DTT. The assay plate was White Proxiplate384-Plus plate (PerkinElmer), and the reaction was incubated at room temperature for 30 min, and the assay volume was 10 μL.
10 μL of detection reagent (containing 0.125 μM SA-XL665 and 5 μL 1×TK-Antibody) was added to the plate and incubated overnight at room temperature, and Synergy Neo 2 was used to read the plate.
The value of 665/620 Ratio minus the value of negative control wells without enzyme, then the obtained value was converted according to the following formula into inhibition rate (%)=(1−Ratiotest/Ratiomax)×100%. Ratiomax was the value of positive controls without tested compound, and Ratiotest was the value of each concentration of different compounds. IC50 (nM) data was obtained by 4 parameter curve fitting (see Table 3).

recombinant human TRKA (G595R), sequence (P04629 33-796 G595R): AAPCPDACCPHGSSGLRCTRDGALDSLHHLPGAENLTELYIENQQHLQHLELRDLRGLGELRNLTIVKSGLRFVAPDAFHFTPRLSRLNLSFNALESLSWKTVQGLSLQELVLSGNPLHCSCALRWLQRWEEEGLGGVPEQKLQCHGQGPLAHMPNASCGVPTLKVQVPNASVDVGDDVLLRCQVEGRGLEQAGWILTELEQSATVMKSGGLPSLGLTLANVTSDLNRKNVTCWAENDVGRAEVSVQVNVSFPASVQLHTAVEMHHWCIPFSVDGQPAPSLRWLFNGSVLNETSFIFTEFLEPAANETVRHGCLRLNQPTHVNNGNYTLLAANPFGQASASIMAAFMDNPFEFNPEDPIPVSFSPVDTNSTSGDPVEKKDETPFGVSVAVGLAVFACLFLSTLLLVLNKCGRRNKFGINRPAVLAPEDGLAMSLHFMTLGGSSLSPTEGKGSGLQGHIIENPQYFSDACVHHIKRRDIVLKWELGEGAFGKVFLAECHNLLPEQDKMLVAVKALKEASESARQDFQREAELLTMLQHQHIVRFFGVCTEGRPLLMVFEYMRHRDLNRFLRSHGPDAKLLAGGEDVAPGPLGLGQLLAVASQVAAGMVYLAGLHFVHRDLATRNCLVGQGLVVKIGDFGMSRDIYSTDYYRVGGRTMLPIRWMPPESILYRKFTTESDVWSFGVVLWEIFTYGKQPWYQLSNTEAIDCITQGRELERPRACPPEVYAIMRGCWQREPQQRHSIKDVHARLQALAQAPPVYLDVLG
Recombinant human TRKC, sequence (Q16288 32-839): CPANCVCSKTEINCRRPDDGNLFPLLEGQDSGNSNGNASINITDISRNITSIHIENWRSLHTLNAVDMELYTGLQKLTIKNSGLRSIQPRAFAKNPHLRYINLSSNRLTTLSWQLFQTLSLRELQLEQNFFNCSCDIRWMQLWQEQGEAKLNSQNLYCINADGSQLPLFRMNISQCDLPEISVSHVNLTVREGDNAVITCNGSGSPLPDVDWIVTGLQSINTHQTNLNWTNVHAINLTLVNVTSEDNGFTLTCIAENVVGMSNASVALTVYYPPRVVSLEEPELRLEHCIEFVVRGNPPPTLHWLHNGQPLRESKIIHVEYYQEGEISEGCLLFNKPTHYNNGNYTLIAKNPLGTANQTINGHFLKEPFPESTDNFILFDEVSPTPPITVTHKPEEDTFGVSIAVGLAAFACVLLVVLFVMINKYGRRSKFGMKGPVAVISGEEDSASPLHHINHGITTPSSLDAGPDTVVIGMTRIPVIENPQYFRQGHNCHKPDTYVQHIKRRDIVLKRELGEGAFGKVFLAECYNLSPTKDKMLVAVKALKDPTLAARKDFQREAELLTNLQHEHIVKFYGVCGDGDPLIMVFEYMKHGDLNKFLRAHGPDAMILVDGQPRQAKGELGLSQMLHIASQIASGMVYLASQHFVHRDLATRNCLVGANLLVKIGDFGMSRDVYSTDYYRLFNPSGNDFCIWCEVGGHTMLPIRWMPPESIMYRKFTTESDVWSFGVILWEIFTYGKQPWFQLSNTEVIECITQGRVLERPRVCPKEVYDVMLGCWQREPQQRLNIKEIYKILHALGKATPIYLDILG
Recombinant human TRKA, sequence (P04629 33-796): as the sequence (P04629 33-796 G595R) above, with R563G counted along it
Recombinant human TRKB, sequence (Q16620 32-822): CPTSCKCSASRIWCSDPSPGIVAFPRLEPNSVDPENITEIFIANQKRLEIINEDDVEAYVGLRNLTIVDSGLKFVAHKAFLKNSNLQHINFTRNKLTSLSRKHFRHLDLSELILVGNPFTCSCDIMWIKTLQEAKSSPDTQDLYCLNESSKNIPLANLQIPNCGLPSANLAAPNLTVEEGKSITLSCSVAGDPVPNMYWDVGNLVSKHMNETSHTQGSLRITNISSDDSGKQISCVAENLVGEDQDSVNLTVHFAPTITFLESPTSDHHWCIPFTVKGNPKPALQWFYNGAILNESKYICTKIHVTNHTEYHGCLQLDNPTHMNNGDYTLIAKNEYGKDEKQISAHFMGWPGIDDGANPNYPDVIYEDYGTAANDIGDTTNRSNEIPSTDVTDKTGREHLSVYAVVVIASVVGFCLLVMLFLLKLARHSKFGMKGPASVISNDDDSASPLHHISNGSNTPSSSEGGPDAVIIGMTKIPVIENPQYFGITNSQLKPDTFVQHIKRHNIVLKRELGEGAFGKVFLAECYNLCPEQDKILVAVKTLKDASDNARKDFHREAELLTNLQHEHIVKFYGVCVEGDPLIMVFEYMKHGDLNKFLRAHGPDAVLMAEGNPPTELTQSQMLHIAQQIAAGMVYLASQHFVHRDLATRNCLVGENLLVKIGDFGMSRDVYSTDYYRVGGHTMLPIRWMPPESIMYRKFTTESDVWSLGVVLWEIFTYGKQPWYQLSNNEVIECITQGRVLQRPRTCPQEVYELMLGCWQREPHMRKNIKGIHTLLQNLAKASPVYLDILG

IC50 (Recombinant human TRKC)	IC50 (Recombinant human TRKB)	IC50 (Recombinant human TRKA)	IC50 [1]	Compound
< 1 nM	< 1 nM	< 1 nM	< 0.01 µM	O=C(O)c1cnc2[nH]nc(N3C[C@@H](F)C[C@@H]3c3cc(F)ccc3F)c2c1 [Example 17, 3-((2R,4S)-2-(2,5-difluorophenyl)-4-fluoropyrrolidin-1-yl)-1H-pyrazolo[3,4-b]pyridine-5-carboxylic acid]
< 500 nM	< 500 nM	< 500 nM		CN(C)C(=O)c1cnc2[nH]nc(N3C[C@@H](F)C[C@@H]3c3cc(F)ccc3F)c2c1 [Example 18, 3-((2R,4S)-2-(2,5-difluorophenyl)-4-fluoropyrrolidin-1-yl)-N,N-dimethyl-1H-pyrazolo[3,4-b]pyridine-5-carboxamide]
< 1 nM	< 1 nM	< 1 nM	< 0.001 µM	CC(C)OC(=O)c1cnc2[nH]nc(N3C[C@@H](F)C[C@@H]3c3cc(F)ccc3F)c2c1 [Example 19, isopropyl 3-((2R,4S)-2-(2,5-difluorophenyl)-4-fluoropyrrolidin-1-yl)-1H-pyrazolo[3,4-b]pyridine-5-carboxylate]
< 1 nM	< 1 nM	< 1 nM	< 0.001 µM	Fc1ccc(F)c([C@H]2C[C@H](F)CN2c2n[nH]c3ncc(-c4nn[nH]n4)cc23)c1 [Example 21, 3-((2R,4S)-2-(2,5-difluorophenyl)-4-fluoropyrrolidin-1-yl)-5-(2H-tetrazol-5-yl)-1H-pyrazolo[3,4-b]pyridine]
< 10 nM	< 10 nM	< 10 nM		O=C1CC(n2cc(-c3cnc4[nH]nc(N5C[C@@H](F)C[C@@H]5c5cc(F)ccc5F)c4c3)cn2)CCN1 (stereo partly drawn) [Example 23, 4-(4-(3-((2R,4S)-2-(2,5-difluorophenyl)-4-fluoropyrrolidin-1-yl)-1H-pyrazolo[3,4-b]pyridin-5-yl)-1H-pyrazol-1-yl)piperidin-2-one]
< 1 nM	< 1 nM	< 1 nM	< 0.001 µM	CS(=O)(=O)n1cc(-c2cnc3[nH]nc(N4C[C@@H](F)C[C@@H]4c4cc(F)ccc4F)c3c2)cn1 [Example 27, 3-((2R,4S)-2-(2,5-difluorophenyl)-4-fluoropyrrolidin-1-yl)-5-(1-(methylsulfonyl)-1H-pyrazol-4-yl)-1H-pyrazolo[3,4-b]pyridine]
< 100 nM	< 10 nM	< 100 nM		COCc1nnc(-c2cnc3c(c2)c(N2C[C@@H](F)C[C@@H]2c2cc(F)ccc2F)nn3COC)o1 [Example 38, 2-(3-((2R,4S)-2-(2,5-difluorophenyl)-4-fluoropyrrolidin-1-yl)-1-(methoxymethyl)-1H-pyrazolo[3,4-b]pyridin-5-yl)-5-(methoxymethyl)-1,3,4-oxadiazole]
< 1 nM	< 1 nM	< 1 nM		NNC(=O)c1cnc2[nH]nc(N3C[C@@H](F)C[C@@H]3c3cc(F)ccc3F)c2c1 [Example 39, 3-((2R,4S)-2-(2,5-difluorophenyl)-4-fluoropyrrolidin-1-yl)-1H-pyrazolo[3,4-b]pyridine-5-carbohydrazide]

The next lines start with the molecule.

Compound	IC50 (Recombinant human TRKC)	IC50 (Recombinant human TRKB)	IC50 (Recombinant human TRKA)	IC50 [1]
CNC(=O)CC1(O)CCN(C(=O)Nc2cnc3[nH]nc(N4CCC[C@@H]4c4cc(F)ccc4F)c3c2)C1 (stereo partly drawn) [Example 1, N-(3-((R)-2-(2,5-difluorophenyl)pyrrolidin-1-yl)-1H-pyrazolo[3,4-b]pyridin-5-yl)-3-hydroxy-3-(2-(methylamino)-2-oxoethyl)pyrrolidine-1-carboxamide]	< 500 nM	< 500 nM	< 500 nM	
O=C(Nc1cnc2[nH]nc(N3CCC[C@@H]3c3cc(F)ccc3F)c2c1)N1CC[C@H](O)C1 [Example 2, (S)—N-(3-((R)-2-(2,5-difluorophenyl)pyrrolidin-1-yl)-1H-pyrazolo[3,4-b]pyridin-5-yl)-3-hydroxypyrrolidine-1-carboxamide]	< 500 nM	< 500 nM	< 500 nM	
O=C(Nc1cnc2[nH]nc(N3CCC[C@@H]3c3cc(F)ccc3F)c2c1)c1ccc(N2CC[C@H](O)C2)nc1 [Example 3, N-(3-((R)-2-(2,5-difluorophenyl)pyrrolidin-1-yl)-1H-pyrazolo[3,4-b]pyridin-5-yl)-6-((S)-3-hydroxypyrrolidin-1-yl)nicotinamide]	< 50 nM	< 100 nM	< 50 nM	
NC(=O)c1cnc2[nH]nc(N3CCC[C@@H]3c3cc(F)ccc3F)c2c1 [Example 4, (R)-3-(2-(2,5-difluorophenyl)pyrrolidin-1-yl)-1H-pyrazolo[3,4-b]pyridine-5-carboxamide]	< 10 nM	< 10 nM	< 10 nM	
O=C(NCCO)c1cnc2[nH]nc(N3CCC[C@@H]3c3cc(F)ccc3F)c2c1 [Example 6, (R)-3-(2-(2,5-difluorophenyl)pyrrolidin-1-yl)-N-(2-hydroxyethyl)-1H-pyrazolo[3,4-b]pyridine-5-carboxamide]	< 50 nM	< 50 nM	< 50 nM	
COCCNC(=O)c1cnc2[nH]nc(N3CCC[C@@H]3c3cc(F)ccc3F)c2c1 [Example 8, (R)-3-(2-(2,5-difluorophenyl)pyrrolidin-1-yl)-N-(2-methoxyethyl)-1H-pyrazolo[3,4-b]pyridine-5-carboxamide]	< 10 nM	< 10 nM	< 50 nM	
O=C(NCCCO)c1cnc2[nH]nc(N3CCC[C@@H]3c3cc(F)ccc3F)c2c1 [Example 9, (R)-3-(2-(2,5-difluorophenyl)pyrrolidin-1-yl)-N-(3-hydroxypropyl)-1H-pyrazolo[3,4-b]pyridine-5-carboxamide]	< 50 nM	< 10 nM	< 50 nM	
CC(C)(O)CNC(=O)c1cnc2[nH]nc(N3CCC[C@@H]3c3cc(F)ccc3F)c2c1 [Example 10, (R)-3-(2-(2,5-difluorophenyl)pyrrolidin-1-yl)-N-(2-hydroxy-2-methylpropyl)-1H-pyrazolo[3,4-b]pyridine-5-carboxamide]	< 10 nM	< 10 nM	< 50 nM	
O=C(NCCCCO)c1cnc2[nH]nc(N3CCC[C@@H]3c3cc(F)ccc3F)c2c1 [Example 12, (R)-3-(2-(2,5-difluorophenyl)pyrrolidin-1-yl)-N-(4-hydroxybutyl)-1H-pyrazolo[3,4-b]pyridine-5-carboxamide]	< 10 nM	< 50 nM	< 10 nM	
COC(=O)c1cnc2[nH]nc(N3C[C@@H](F)C[C@@H]3c3cc(F)ccc3F)c2c1 [Example 13, Methyl 3-((2R,4S)-2-(2,5-difluorophenyl)-4-fluoropyrrolidin-1-yl)-1H-pyrazolo[3,4-b]pyridine-5-carboxylate]	< 1 nM	< 1 nM	< 1 nM	< 0.001 µM
O=C(N[C@H]1CC[C@@H](O)CC1)c1cnc2[nH]nc(N3CCC[C@@H]3c3cc(F)ccc3F)c2c1 [Example 14, 3-((R)-2-(2,5-difluorophenyl)pyrrolidin-1-yl)-N-((1s,4S)-4-hydroxycyclohexyl)-1H-pyrazolo[3,4-b]pyridine-5-carboxamide]	< 10 nM	< 10 nM	< 10 nM	
CC1(O)CCN(c2cnc(C(=O)Nc3cnc4[nH]nc(N5C[C@@H](F)C[C@@H]5c5cc(F)ccc5F)c4c3)cn2)C1 (stereo partly drawn) [Example 16, N-(3-((2R,4S)-2-(2,5-difluorophenyl)-4-fluoropyrrolidin-1-yl)-1H-pyrazolo[3,4-b]pyridin-5-yl)-5-(3-hydroxy-3-methylpyrrolidin-1-yl)pyrazine-2-carboxamide]	< 10 nM	< 10 nM	< 1 nM	
